Positions of bridges follow the written chain, without caps; N, C: chain ends. Non-standard residues stand in square brackets, D forms with d. No end group written: not given here.
Columns and labels:
T84 cells monolayer = conditions: for effect on SP-333 stimulation of Isc: T84 cells monolayer, opioid either pre or post SP-333 treatment; for effect on 1 μM SP-333-stimulated Isc: apical pre-treatment with 5 μM opioid for 5 min
rat jejunum tissue = conditions: for effect of inhibitor on SP-333-stimulated Isc / effect on 1 μM SP-333-stimulated Isc: rat jejunum; for effect of inhibitor on SP-333-stimulated Isc: inhibitor pretreatment 5 min, then 1 μM SP-333; for effect on SP-333 stimulation of Isc: rat jejunum tissue, opioid either pre or post SP-333 treatment; for effect on 1 μM SP-333-stimulated Isc: apical pre-treatment with 5 μM opioid for 5 min
[1] = system: female Sprague-Dawley CD rats; test: methadone-induced constipation in rats (fecal output); assay type: in vivo, rat; conditions: for average number of fecal pellets over 4 h, lower compared to the vehicle group: light cycle
Experimental: To identify the methadone dose that induces constipation in rats, female Sprague-Dawley CD rats 7 to 8 weeks of age (n=6/group) were administered 0 (vehicle), 2.5, 5, and 7.5 mg/kg of methadone (1.5 ml/kg dose volume) by IP injection once a day for 5 days. Fecal pellets were collected at 4 h intervals during the light cycle and average number of pellets was recorded for each group during the course of the study following daily dose administrations of methadone.
To evaluate the ability of SP-333 to relieve methadone-induced constipation, female Sprague-Dawley CD rats 7 to 8 weeks of age (n=7/group) were administered 5 mg/kg of methadone (or vehicle) each day for 7 days via IP injection to induce constipation. Ten minutes following the IP dose each day, an oral gavage of 2.5, and 5 mg/kg of SP-333 or vehicle (buffer) was administered. Fecal pellets were collected at 4 h intervals during the light cycle and average number of pellets recorded for each group during the course of the study following daily administration of vehicle, methadone or combination of methadone and SP-333.

[2] = system: female Sprague-Dawley CD rats; test: GI transit delay induced by repeated methadone administration in rats; assay type: in vivo, rat; conditions: after 16 doses (once daily; 7 doses at 5 mg/kg and 9 doses at 2.5 mg/kg)
Experimental: The ability of SP-333 to alleviate GI transit delay induced by repeated methadone administration was also evaluated in the similar manner. Female Sprague-Dawley CD rats 7 to 8 weeks of age (n=7/group) received via IP injection 16 doses of methadone (once daily; 7 doses @ 5 mg/kg and 9 doses @ 2.5 mg/kg). Ten minutes following each methadone dose, each group received an oral gavage of vehicle, 2.5, and 5 mg/kg of SP-333. At the end of the dosing regimen, animals were fasted overnight and GI transit was evaluated as described above.

[3] = system: female Sprague-Dawley rats; test: methadone-induced delay in rat GI transit (charcoal meal); assay type: in vivo
Experimental: (§1) Animals: All study procedures were conducted under a study outline approved by the Institutional Animal Care and Use Committee of MB Research Labs (Spinnerstown, Pa.) or Lampire Biological Laboratories (Pipersville, Pa.). Seven to eight week old female Sprague-Dawley rats [Crl:CD(SD)], weighing between ˜180-210 grams, were obtained from Charles River Laboratories and allowed to acclimate for a week. Animals were maintained on a 12 hour light-dark cycle. For intestinal tissue collection and evaluation of GI transit, rats were fasted for at least 18 hours before the experiment, with free access to water.
(§2) The ability of opioids to delay GI transit in rats was tested by either administering 0 (vehicle) 0.25, 1 and 2.5 mg/kg of morphine or 0 (vehicle), 0.25, 2.5 and 5 mg/kg of methadone (1.5 ml/kg dose volume) by IP injection. Water served as vehicle control. Ten minutes later, a 2 mL charcoal meal consisting of 10% activated charcoal (Sigma-Aldrich, St. Louis, Mo.) and 10% gum Arabic (Sigma-Aldrich, St. Louis, Mo.) in water was administered via oral gavage. Rats were euthanized 10 min after the charcoal meal via IP injection of 150 mg/kg Beuthanasia-D solution (sodium pentobarbital, 390 mg/mL). The small intestine was removed and the total length from the pyloric sphincter to the ileocecal junction was recorded, as well as the distance traveled by the leading edge of the charcoal. Intestinal transit was determined by calculating the ratio (expressed as a percentage) of the distance between the pyloric sphincter and the leading edge of the charcoal to the distance between the pyloric sphincter and the ileocecal junction.
To evaluate the ability of SP-333 to reverse methadone induced delayed GI transit, animals were administered 2.5 mg/kg of methadone by IP injection. Ten minutes later, an oral gavage of 0 (vehicle), 0.1, 0.5, 2.5, 5 and 50 mg/kg of SP-333 (1.5 ml/kg dose volume) was administered followed immediately by a 2 mL oral gavage of the charcoal meal. Ten minutes after the charcoal meal, animals were euthanized and intestinal transit was calculated as described above.

[4] = system: female Sprague-Dawley CD rats; test: methadone-induced constipation in rats (fecal output); assay type: in vivo, rat
[5] = system: female Sprague-Dawley rats; test: morphine-induced delay in rat GI transit (charcoal meal); assay type: in vivo; conditions: for GI transit slowed compared to vehicle controls: rats
Experimental: as §1, §2
To evaluate the ability of SP-333 to reverse morphine induced delayed GI transit, animals were administered 2.5 mg/kg of morphine by IP injection followed immediately by oral gavage of 0 (vehicle), 0.5, 2.5, 5 and 50 mg/kg of SP-333 (1.5 ml/kg dose volume). Water served as vehicle control. Charcoal meal was administered ten minutes later and animals were euthanized ten minutes after the charcoal meal and intestinal transit was calculated as described above.

[6] = biological target: T1, guanylate cyclase-C (GC-C) in rat jejunum (rat, UniProt P23897 23-1072); test: cell-based or functional assay
T1 sequence (looked up): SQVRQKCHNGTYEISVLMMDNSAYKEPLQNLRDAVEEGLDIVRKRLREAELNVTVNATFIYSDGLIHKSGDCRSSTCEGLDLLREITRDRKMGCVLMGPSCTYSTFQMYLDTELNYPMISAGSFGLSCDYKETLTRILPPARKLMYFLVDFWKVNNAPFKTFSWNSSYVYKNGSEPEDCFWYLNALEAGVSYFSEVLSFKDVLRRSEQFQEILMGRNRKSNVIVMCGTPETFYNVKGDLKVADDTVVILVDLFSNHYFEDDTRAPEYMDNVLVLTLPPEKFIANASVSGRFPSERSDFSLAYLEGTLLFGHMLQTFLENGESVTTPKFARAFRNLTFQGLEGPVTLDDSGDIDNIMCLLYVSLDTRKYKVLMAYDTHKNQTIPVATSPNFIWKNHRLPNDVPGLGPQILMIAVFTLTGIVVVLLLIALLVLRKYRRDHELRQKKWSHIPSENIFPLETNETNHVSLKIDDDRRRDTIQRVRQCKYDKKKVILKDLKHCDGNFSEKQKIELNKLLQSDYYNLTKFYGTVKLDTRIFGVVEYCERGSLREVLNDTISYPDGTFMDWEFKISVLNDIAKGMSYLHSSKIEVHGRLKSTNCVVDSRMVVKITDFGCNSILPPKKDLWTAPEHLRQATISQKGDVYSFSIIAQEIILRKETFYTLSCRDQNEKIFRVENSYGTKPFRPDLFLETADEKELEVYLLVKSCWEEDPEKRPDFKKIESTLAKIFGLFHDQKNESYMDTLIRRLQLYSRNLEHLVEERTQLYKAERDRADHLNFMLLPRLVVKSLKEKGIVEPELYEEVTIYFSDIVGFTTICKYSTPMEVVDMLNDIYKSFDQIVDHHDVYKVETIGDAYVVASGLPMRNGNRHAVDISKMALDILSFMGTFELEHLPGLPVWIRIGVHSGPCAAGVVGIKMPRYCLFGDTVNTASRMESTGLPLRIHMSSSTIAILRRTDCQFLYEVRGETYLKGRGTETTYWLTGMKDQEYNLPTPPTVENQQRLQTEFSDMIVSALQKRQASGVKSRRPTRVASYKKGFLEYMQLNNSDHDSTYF

[7] = biological target: guanylate cyclase-C (GC-C) on T84 cells (human (T84, human carcinoma cell line), UniProt P25092 24-1073); test: cell-based or functional assay
guanylate cyclase-C (GC-C) on T84 cells, sequence (P25092 24-1073): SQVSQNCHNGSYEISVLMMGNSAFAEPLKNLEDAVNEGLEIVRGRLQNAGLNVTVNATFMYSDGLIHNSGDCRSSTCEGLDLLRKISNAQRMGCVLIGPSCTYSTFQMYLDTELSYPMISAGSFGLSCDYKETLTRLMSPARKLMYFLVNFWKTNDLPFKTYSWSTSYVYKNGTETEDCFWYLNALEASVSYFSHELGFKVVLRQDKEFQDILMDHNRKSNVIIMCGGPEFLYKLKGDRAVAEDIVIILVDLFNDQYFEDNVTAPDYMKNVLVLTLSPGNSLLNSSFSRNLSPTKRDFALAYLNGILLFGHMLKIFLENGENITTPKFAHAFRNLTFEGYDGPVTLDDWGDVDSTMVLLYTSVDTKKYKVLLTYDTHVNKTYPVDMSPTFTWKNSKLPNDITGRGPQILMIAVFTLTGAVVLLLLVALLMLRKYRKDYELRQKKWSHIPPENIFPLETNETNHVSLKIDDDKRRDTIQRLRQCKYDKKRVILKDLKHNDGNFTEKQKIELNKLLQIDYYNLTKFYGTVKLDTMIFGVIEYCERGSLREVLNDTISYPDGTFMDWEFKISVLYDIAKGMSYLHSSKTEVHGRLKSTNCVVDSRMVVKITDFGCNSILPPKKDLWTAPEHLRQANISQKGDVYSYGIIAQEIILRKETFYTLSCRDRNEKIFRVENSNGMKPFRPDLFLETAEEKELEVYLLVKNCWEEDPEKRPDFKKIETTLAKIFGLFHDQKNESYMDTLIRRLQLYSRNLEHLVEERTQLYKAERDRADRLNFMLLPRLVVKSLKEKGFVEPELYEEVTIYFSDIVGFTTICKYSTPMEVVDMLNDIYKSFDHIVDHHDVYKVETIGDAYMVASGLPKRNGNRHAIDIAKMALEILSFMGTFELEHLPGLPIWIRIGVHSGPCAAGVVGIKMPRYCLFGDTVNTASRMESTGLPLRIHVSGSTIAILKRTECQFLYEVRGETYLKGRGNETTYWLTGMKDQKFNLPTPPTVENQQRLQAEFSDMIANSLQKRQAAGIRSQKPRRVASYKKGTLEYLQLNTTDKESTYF

Molecule: O=C(O)c1ccc(/C=C2\SC(=S)N(c3cccc(C(F)(F)F)c3)C2=O)cc1 [CFTRinh172]
- suppression in SP-333-stimulated Isc (T84 cells monolayer; T84 cells, 10 μM inhibitor, vs 1 μM SP-333 alone): 80%
- effect of inhibitor on SP-333-stimulated Isc (rat jejunum tissue): less compared to that detected in T84 cells

Molecule: Nc1ncnc2c1nc(Sc1ccc(Cl)cc1)n2[C@@H]1O[C@@H]2COP(=O)(O)O[C@H]2[C@H]1O [CPT-cAMP]
- stimulation of Isc across T84 cell monolayers (T84 cells monolayer): stimulate Isc

Molecule: Nc1nc2c(nc(Sc3ccc(Cl)cc3)n2[C@@H]2O[C@@H]3COP(=O)(O)O[C@H]3[C@H]2O)c(=O)[nH]1 [CPT-cGMP]
- stimulation of Isc across T84 cell monolayers (T84 cells monolayer): stimulate Isc

Molecule: [Cl][Cd][Cl] [CdCl2]
- decrease in SP-333-stimulated Isc (T84 cells monolayer; T84 cells, 300 μM, 1 μM SP-333): No appreciable decrease
- effect of inhibitor on SP-333-stimulated Isc (rat jejunum tissue): minimal effect

Molecule: COC(=O)[C@@]1(OC)C[C@H]2O[C@]1(C)n1c3ccccc3c3c4c(c5c6ccccc6n2c5c31)C(=O)N(C)C4 [PKG-II inhibitor]
- suppression of relative SP-333-stimulated Isc (T84 cells monolayer; T84 cells, 4 μM inhibitor, 1 μM SP-333): approximately 35%

Molecule: CCC(=O)C(CC(C)N(C)C)(c1ccccc1)c1ccccc1 (stereo not drawn) [methadone]
- average number of fecal pellets over 4 h, lower compared to the vehicle group ([1]; 2.5 mg/kg IP once daily for 5 days): 29%
- average number of fecal pellets over 4 h, lower compared to the vehicle group ([1]; 5 mg/kg IP once daily for 5 days): 77%
- average number of fecal pellets over 4 h, lower compared to the vehicle group ([1]; 7.5 mg/kg IP once daily for 5 days): 54%
- average number of fecal pellets, less vs vehicle control ([1]; methadone alone, 5.0 mg/kg IP daily 7 days then 2.5 mg on days 8-16): 82%
- rat small intestine transit [2]: significantly delayed rat small intestine transit
- GI transit ([3]; 2.5 mg/kg methadone IP alone (vs 55% in vehicle treated)): 28%
- GI transit ([3]; 0.25, 2.5 and 5 mg/kg IP, rats): statistically significant reduction in GI transit
- effect on SP-333 stimulation of Isc (T84 cells monolayer): did not alter stimulation of Isc
- effect on 1 μM SP-333-stimulated Isc (T84 cells monolayer; T84 cells): no effect
- effect on SP-333 mediated enhancement in Isc (T84 cells monolayer; T84 monolayer, 1 μM SP-333 then opioid at 20 μM, FIG. 5B): inhibited
- effect on SP-333 stimulation of Isc (rat jejunum tissue): did not alter stimulation of Isc
- effect on 1 μM SP-333-stimulated Isc (rat jejunum tissue): no effect
- average number of fecal pellets over 4 h, lower compared to the vehicle group ([4]; 10 mg/kg IP once daily for 5 days, light cycle): 63%
- average number of fecal pellets ([4]; methadone alone 2.5 mg/kg IP once daily for 9 days): significant decrease in the average number of fecal pellets

Molecule: CN1CC[C@]23c4c5ccc(O)c4O[C@H]2[C@@H](O)C=C[C@H]3[C@H]1C5 [morphine]
- effect on SP-333 stimulation of Isc (T84 cells monolayer): did not alter stimulation of Isc
- effect on 1 μM SP-333-stimulated Isc (T84 cells monolayer; T84 cells): negligible effect
- effect on SP-333 stimulation of Isc (rat jejunum tissue): did not alter stimulation of Isc
- effect on 1 μM SP-333-stimulated Isc (rat jejunum tissue): negligible effect
- GI transit ([5]; 2.5 mg/kg morphine IP alone (vs 53% in vehicle treated)): 23%
- GI transit slowed compared to vehicle controls ([5]; single dose 0.25 mg/kg IP): 52%
- GI transit slowed compared to vehicle controls ([5]; single dose 1.0 mg/kg IP): 56%

B1: SP-333 (peptide)
peptide: [dN]DECELCVNVACTGC[dL]
modifications: disulfide 4-12, 7-15
- EC50 of stimulation of Isc across rat jejunum tissue, apical treatment [6]: 0.287 µM
- EC50 of stimulation of Isc across T84 cells monolayer, apical treatment [7]: 0.215 µM

Source: US20160367622A1, “AGONISTS OF GUANYLATE CYCLASE USEFUL FOR THE TREATMENT OF OPIOID INDUCED DYSFUNCTIONS” (priority 2013, published 2016)
